Each block holds one molecule with its values, some of them ahead of it.
Key:
[1] = tested on: ALKBH3; set-up: method as in PMID 28269980; conditions: cited from earlier work
[2] = target: T1, ALKBH6 (Homo sapiens, UniProt Q3KRA9); experiment: FDH-coupled formaldehyde release demethylation assay; format: biochemical
T1 construct: His-tag; made in house
Description: (§1) NMPs including 1meAMP (Jena Bioscience, NU-1029-1,) 7meGMP (Jena Bioscience, NU-1135S), 6me-AMP (Sigma, M2780) were purchased. N-methylated deoxy-NMPs were prepared by methylating chemically synthesized 30-mer oligonucleotide containing either dA, dG, dC, or dT by MMS (5%, v/v) (0.59 M) MMS (Sigma, 129925) and purified as described before ([17]). The oligonucleotides were digested with nuclease P1 (NEB) at 37 °C for 4 h to produce deoxy-NMPs. After heat inactivating the nuclease, dNMPs were purified by HPLC and used for the demethylation reaction. N-methylated NMPs were purified similarly, using RNA as the starting material. For the demethylation reaction, ALKBH6 (1 μM) and me-dNMPs (1 mM) were mixed in the dioxygenase reaction buffer and incubated at 37 °C for 30 min. Formaldehyde release was detected by FDH-coupled DNA repair assay as described before ([32], [33]). Briefly, 1 mM NAD+ and 0.01 U FDH were added to the dioxygenase reaction buffer containing methylated nucleotide and ALKBH6. NADH generated was detected by the characteristic absorption peak (340 nm) using a 96-well multimode reader (Synergy, Biotek Instrument). Formaldehyde production was quantified from the standard curve and the initial velocities were determined using various substrate concentrations. The results were plotted and analyzed using GraphPad Prism.

[3] = target: T2, ALKBH6 E115 mutant (Homo sapiens, UniProt Q3KRA9, E115A); experiment: as above; format: biochemical; conditions: substrate 500 μM
T2 construct: His-tag; made in house
Description: as §1

[4] = target: T1, ALKBH6; experiment: Demethylation assay by HPLC analysis; format: biochemical; conditions: substrate 250 and 500 μM, 30 min
Description: (§2) Following ALKBH6-mediated demethylation, NMPs and dNMPs were analyzed in an HPLC system (Shimadzu) equipped with a reversed-phase Shim-pack GIST C18 5 μm separation column (250 × 4.6 mm). For majority of the nucleotides including 1me-AMP, 1me-dAMP, 7me-dGMP, 6me-AMP, 7me-GMP, 3me-dCMP, dAMP, dCMP AMP, GMP, the column was equilibrated with mobile phase A (50 mM ammonium acetate) and mobile phase B (50 mM ammonium acetate, 50% of acetonitrile and 0.1% trifluoroacetic acid. For dGMP, different mobile phase A (50 mM ammonium acetate, 3% methanol, pH-5.0) and mobile phase B (methanol) were used. The peaks were identified based on the elution time of the standards (Fig. S9) purchased from Sigma and further analyzed using LabSolutions software (www.shimadzu.com) and analyzed by mass spectrometry.

[5] = target: T3, ALKBH6 Y120A (Homo sapiens, UniProt Q3KRA9, Y120A); experiment: Demethylation assay by HPLC analysis; format: biochemical; conditions: substrate 500 μM
T3 construct: His-tag; made in house
Description: as §2

[6] = target: T1, ALKBH6; experiment: Intrinsic tryptophan fluorescence quenching (Stern-Volmer); format: binding; conditions: WT ALKBH6, 2OG omitted
Description: (§3) All tryptophan fluorescence spectroscopy experiments were performed using a multimode plate reader (PerkinElmer). The excitation and emission wavelengths were fixed at 280 nm and 356 nm, respectively. To measure ALKBH6–ligand interactions, recombinant ALKBH6 (500 nM), and increasing concentrations of ligand (0–80 μM) were equilibrated in binding buffer (50 mM Hepes, pH 7.6, 300 mM KCl) for 1 h. For Stern–Volmer quenching analysis, the F0/F = 1 + KSV(L) formula was used, where, KSV is the Stern–Volmer constant, L is the concentration of the quencher, F0 and F represent the steady-state fluorescence intensities in the absence and presence of quencher, respectively. All the data were calculated with best-fit parameter values and 95% confidence intervals in GraphPad Prism software.

[7] = target: T4, ALKBH6 E115A (Homo sapiens, UniProt Q3KRA9, E115A); experiment: as above; format: binding
T4 construct: His-tag; made in house
Description: as §3

[8] = target: T3, ALKBH6 Y120A; experiment: as above; format: binding
Description: as §3

[9] = target: T1, ALKBH6; experiment: Thermal shift analysis (DSF, SYPRO Orange); format: binding; conditions: from ΔTm vs ligand concentration; read-out: apparent dissociation constant
Description: (§4) All the experiments were performed in Eco Real-Time PCR system as described before ([55]). Purified recombinant His-tag ALKBH6 or ALKBH6-Y120A (5 μM) was incubated with varying concentrations (0–50 μM) of 7methyl-GMP in binding buffer (50 mM Hepes pH7.6, and 75 mM KCl). SYPRO Orange was added to the reaction (20 μl) and melting derivatives (-dRFU/dT) of fluorescence emission were determined by measuring the fluorescence with temperature increment of 0.1 °C from 40 °C to 100 °C. The ΔTm was calculated by subtracting Tm of ALKBH6 from Tm of ALKBH6 with 7methyl-GMP. The changes of Tm (ΔTm) were plotted against increasing concentrations of 7methyl-GMP and dissociation constant was determined by using one site specific binding formula of GraphPad Prism software.

[10] = target: T3, ALKBH6 Y120A; experiment: Thermal shift analysis (DSF, SYPRO Orange); format: binding
Description: as §4

[11] = target: T1, ALKBH6; experiment: Uncoupled succinate production (SucCD colorimetric assay); format: biochemical; conditions: CoCl2 20 μM, no substrate
Description: The uncoupled succinate production reaction was set up in two steps as described before ([54]). In the initial step, WT ALKBH6 (5–20 μM) was incubated in dioxygenase reaction buffer (20 mM Hepes, pH 8.0, 0.2 mM 2OG, 2 mM ascorbate, 5 μM Fe(NH4)2(SO4)2) for 1 h at 37 °C to form succinate. Then the reaction mixture (50 μl) was mixed with recombinant sucCD (1 μM) in SucCD reaction buffer (2 mM MES, pH 6.5, 5 mM ATP 3.258 mM CoA, 50 mM MgCl2) and further incubated for 30 min at 37 °C. Finally, molybdate solution was added for colorimetric detection and the succinate concentration was detected from the standard curve. For inhibition, CoCl2 (20 μM) was used. The results were plotted and analyzed using GraphPad Prism (www.graphpad.com).

[12] = tested on: ALKBH6; experiment: ALKBH6 knockdown by shRNA, qPCR; format: cell-based, human; conditions: MCF7 cells, 48 h after transfection, vs Sh-control
Text: The GFP-tagged ALKBH6 expression plasmids were constructed by cutting the PCR-amplified WT ALKBH6 with XhoI and EcoRI, and then cloned in-frame and upstream of the sequence encoding the GFP pEGFP-N1 (Clontech). ALKBH6 shRNA constructs were generated using reported sequences (shALKBH6#1 5′ AGGAGTATTTGCTTCGACA 3′, shALKBH6#2 5′ […] 3′) and cloned into the pSilencer 2.1-U6 puro shRNA vector. All the shRNA constructs were confirmed by sequencing (Fig. S6). For negative control, pSilencer 2.1-U6 puro vector was used.
MCF7 cells were maintained in Dulbecco's modified Eagle's medium (DMEM) with 10% fetal bovine serum at 37 °C in a humidified air containing 5% CO2. Stable ALKBH6 knockdown cell line was generated by inserting the target sequence for ALKBH6 or the scramble control into the pSilencer2.puro (pSil) vector (Ambion) to form short hairpin RNAs for RNAi. For plasmid transfection in MCF7 cells, cells were suspended in DMEM without fetal bovine serum or antibiotics at a concentration of 1 × 10^7 cells/ml. A volume of 0.1 ml was transferred to a sterile electroporation cuvette (Bio-Rad Gene Pulser cuvette) and kept at room temperature for 5 min in the presence of 15 μg plasmid. Electroporation was performed using the Gene Pulser Xcell System (Bio-Rad) with 220 V/cm, 950 μF capacitance, and infinite resistance. […]

T3 sequence (Q3KRA9 whole entry Y120A): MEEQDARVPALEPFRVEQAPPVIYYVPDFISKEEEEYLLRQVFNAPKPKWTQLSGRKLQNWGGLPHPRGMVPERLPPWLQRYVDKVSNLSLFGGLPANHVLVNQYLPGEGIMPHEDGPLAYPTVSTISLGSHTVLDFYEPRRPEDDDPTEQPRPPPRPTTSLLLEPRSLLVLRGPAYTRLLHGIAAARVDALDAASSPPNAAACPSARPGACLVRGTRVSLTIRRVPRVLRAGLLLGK
T1 sequence (Q3KRA9 whole entry): as the sequence (Q3KRA9 whole entry Y120A) above, with A120Y counted along it
T4 sequence (Q3KRA9 whole entry E115A): as the sequence (Q3KRA9 whole entry Y120A) above, with E115A, A120Y counted along it
T2 sequence (Q3KRA9 whole entry E115A): as the sequence (Q3KRA9 whole entry Y120A) above, with E115A, A120Y counted along it

Molecule: Cn1c(=N)cc[nH]c1=O [3meC, N-3-methylcytosine]
kcat [1]: approximately 1.7 min^−1

formaldehyde release / demethylation by ALKBH6 ([2]; FDH-coupled assay, tested as substrate): Formaldehyde release was observed | demethylation activity over time [3]: comparable to WT ALKBH6 | demethylation by ALKBH6 (HPLC) [4]: converted | demethylation (HPLC end product) [5]: little demethylation | Stern-Volmer constant (Ksv) [6]: 0.036 ± 0.009 µM⁻¹ | Stern-Volmer constant (Ksv) [7]: 0.035 ± 0.008 µM⁻¹ | Stern-Volmer constant (Ksv) [8]: negative | Kd [9]: 0.62 µM | ΔTm shift [10]: no significant ΔTm shift
Molecule: C[n+]1cn([C@@H]2O[C@H](COP(=O)(O)O)[C@@H](O)[C@H]2O)c2nc(N)[nH]c(=O)c21 [7me-GMP, N-7-methyl-GMP]

Molecule: [Cl][Co][Cl] [Co(II), cobalt chloride, reference compound]
inhibition of ALKBH6-mediated demethylation ([2]; me-dNMPs as substrate): completely inhibited | inhibition of uncoupled succinate production [11]: inhibited

Molecule: Sh #1: shRNA to ALKBH6, 5′ AGGAGTATTTGCTTCGACA 3′ in pSilencer 2.1-U6 puro vector (shRNA in pSilencer vector; only target-sense given)
reduction of ALKBH6 expression (knockdown) [12]: 75%

Molecule: Sh #2: shRNA to ALKBH6, 5′ GCACCACCTGTAATCTACTAT 3′ in pSilencer 2.1-U6 puro vector (shRNA in pSilencer vector; only target-sense given)
reduction of ALKBH6 expression (knockdown) [12]: more than 90%
